Reference: patent US10779531B2, “Insect repellent” (Kao Corporation, priority 2015, dated 2020)

Assays:
[1] = test system: Adult Asian tiger mosquitoes; assay: Evaluation of inhibition of seeking behavior for human arm (landings on gloved hand); format: in vivo, Asian tiger mosquito; conditions: for Total landing rate (%) / Number of landings total: sample 0.4% in ethanol on cotton-gloved hand; for Total landing rate (%): relative to number of landings with control sample (ethanol) as 100%; for Number of landings total: sum total of 1, 2 and 3 minutes; for Number of landings 1 min / Number of landings 2 min / Number of landings 3 min: sample 0.4% in ethanol, sprayed 14 times (0.6 g) on cotton-gloved hand; for Number of landings 1 min: after 1 minute; for Number of landings 2 min: after 2 minutes; for Number of landings 3 min: after 3 minutes
Description: Adult Asian tiger mosquitoes consisting of 220 females and 80 males each at 5 to 10 day old were purchased from Sumika Technoservice Corporation, and released in a 30 cm×30 cm×30 cm plastic cage (bug dorm).
The concentration of each of 2,4-dimethylcyclohex-3-ene-1-methanol (“floralol”, IFF Inc.) and octahydro-7-methyl-1,4-methanonaphthalen-6(2H)-one (“PLICATONE”, Firmenich SA) as evaluation samples was adjusted to 0.4% with ethanol. A sample containing only ethanol was used as a control.
Each of the evaluation samples and control sample was sprayed 14 times in total (0.6 g) to both sides of a hand wearing a 100% cotton glove doubly.
After application of the sample, the gloved hand was left to stand for 1 minute to volatilize ethanol, and the gloved hand with the sample applied thereto was then put in the plastic cage, and the number of mosquitoes which landed on the glove was counted every 1 minute.
The numbers of landings after 1 minute, 2 minutes, and 3 minutes, and the sum total of them were counted, and the landing rate relative to the number of landings with application of the control sample as 100% was calculated. This experiment was repeated three times.

[2] = test system: female Asian tiger mosquitoes; assay: Evaluation of inhibitory effect on seeking behavior for heat source (thermoreception-inhibiting effect); format: in vivo, Asian tiger mosquito; conditions: fragrance 0.1% in ethanol, 50 μL on sheet on plate heater, landings counted after 30 seconds of contact, relative to ethanol only; for pest or weed control at 0.1 %: Aedes albopictus, 0.5 min, read-out: Inhibitory rate for seeking for heat source (%)
Protocol: (1) Preparation of Asian Tiger Mosquitoes
(§1) Asian tiger mosquitoes grown from eggs purchased from Sumika Technoservice Corporation were used. A transparent plastic pan was filled with water to a depth of approximately 1 cm, and a filter paper on which the eggs had been deposited was put therein. The larvae were fed with tropical fish feed (TetraMin) every day. After approximately 1 week, the pupae were collected with a dropper, and transferred into a 20 mL plastic cup, and the cup was placed in a netted cage. The adults were fed with 10% by mass sucrose contained in a 25 mL plastic tube. The males and females were kept together in one cage and allowed to mate for 5 days after eclosion. After 5 days of captivity, the adults were collected with an insect aspirator and anesthetized on ice for 5 minutes, and visually sorted into males and females to collect only the females.
(2) Evaluation of Inhibitory Effect on Seeking Behavior for Heat Source
Approximately 150 to 200 female Asian tiger mosquitoes were transferred in a plastic cage (30×30×30 cm). To monitor the behavior of the female mosquitoes from the top of the plastic cage, the top surface of the cage was replaced with an acrylic plate. A plate heater (multi-panel heater 16 W for small animals, manufactured by Vivaria) as a heat source was provided at a corner of the cage from the outside of the mesh with an area of 5×3 cm exposed. To take a photograph of the heat source from the top surface in experiment, a video camera (manufactured by Sony Corporation) was disposed above the top surface. A sheet for application of a sample was fixed to the heat source with a double-sided adhesive tape.
The concentration of a fragrance listed in Table 1 was adjusted to 0.1% with ethanol to prepare a sample, and 50 μL of the sample or ethanol as a solvent was administered in experiment. To activate the female mosquitoes, 1% of carbon dioxide was administered from the top for 1 second, and then the heat source was brought into contact with the cage. After 30 seconds of contact, a photograph of the heat source was taken to count the number of mosquitoes attracted. The sheet used for the heat source was discarded and replaced with another sheet every time the assay was completed. In view of the influence of a sample on the mosquitoes, the number of evaluations performed for one cage was limited to (7 samples+1 control) at a maximum. The inhibitory rate relative to the number of landings with application of ethanol solvent only was calculated for one set of assays (7 samples+1 control) to determine the inhibitory effect by using the following equation. Inhibitory rate (%)=100×(1−[number of landings with application of sample]/[number of landings with application of ethanol]) (Equation 1)

[3] = test system: carbon dioxide-sensitive sensory hair of an Asian tiger mosquito; assay: Evaluation of carbon dioxide response-inhibiting effect (nerve firing recording of sensory hair); format: in vivo; conditions: fragrance 1% in paraffin oil, 15 μL on filter paper, olfactory stimulation 1 second, nerve firings relative to paraffin oil, N=1; for pest or weed control at 1 %: Aedes albopictus, 1 s, read-out: Inhibition of carbon dioxide response (%)
Protocol: as §1, with “10” for “10% by”, “mass %” for “mass”, “females. The wings and legs were removed from each female mosquito under anesthesia, and the female mosquito was pushed onto a double-sided adhesive tape pasted on a microscope slide with the back on the tape and thus fixed thereto, and the antennae and maxillary palpi were positioned, so as to achieve the accessibility of electrodes.” for “females.”
A 1 mol/L aqueous solution of potassium hydroxide was injected into a 50 mL syringe, and the syringe was horizontally fixed to a magnet stand with a clamp. A tungsten wire fixed to an electrode holder was horizontally inserted into the syringe, and polished by electrolysis under microscopic observation. A current was supplied from an AC power source to the syringe through the electrode holder via crocodile clips.
The Asian tiger mosquito prepared on a microscope slide was set under a microscope, and positioned so that the antennae were at the center of the view through a ×10 objective lens. A reference electrode was inserted in the eye of the insect. A pipette for providing an olfactory stimulus was placed near the maxillary palpi, and the objective lens was replaced with a ×100 objective lens. The recording electrode was brought close to the sensory hair, and carefully inserted into the sensory hair with a micromanipulator. The peg-like shape of the carbon dioxide-sensitive sensory hair of an Asian tiger mosquito can be confirmed under microscopic observation. After insertion of the electrode into the sensory hair, the spontaneous nerve firing pattern was investigated. Carbon dioxide the concentration of which had been adjusted to 0.1% was led to an olfactory stimulation apparatus via a silicone tube to stimulate the maxillary palpi for 1 second, and the carbon dioxide response was investigated.
The concentration of each of the fragrances listed in Table 4 was adjusted to 1% with paraffin oil, and the resultant was used as a sample. On a filter paper (3 mm×50 mm) 15 μL of the sample was dropped, and the filter paper was inserted in a Pasteur pipette. The Pasteur pipette was connected to a stimulation apparatus via a plastic tube, and olfactory stimulation was performed for 1 second while the response to carbon dioxide in the air was monitored, and thus the carbon dioxide response-inhibiting effect was evaluated. The number of nerve firings in 1 second after stimulation with paraffin oil as a solvent and the number of nerve firings in 1 second after stimulation with each sample were counted, and the ratio was used for evaluation of the response-inhibiting effect (N=1). Inhibitory rate (%)=100×([number of firings after stimulation with paraffin oil−number of firings after stimulation with sample]/[[number of firings after stimulation with paraffin oil]) (Equation 2)

SMILES | pest or weed control at 0.1 % [2] [%] | pest or weed control at 1 % [3] [%] | other results
CC1CC2C3CCC(C3)C2CC1=O (centres unmarked) [octahydro-7-methyl-1,4-methanonaphthalen-6(2H)-one] | 81.3 | – | Total landing rate (%) [1]: 53.3%; Number of landings total [1]: 12; Number of landings 1 min [1]: 2; Number of landings 2 min [1]: 4; Number of landings 3 min [1]: 6
CCCCC(CC)C(=O)OCC (centres unmarked) [Ethyl 2-ethylhexanoate, ethyl 2-ethylhexanoate] | – | 51 | –
CCOC(=O)C(C)C1CCCCC1 (centres unmarked) [Ethyl 2-cyclohexylpropionate, ethyl 2-cyclohexylpropionate] | – | 48 | –
CC1C(=O)c2ccccc2C1(C)C (centres unmarked) [2,3,3-Trimethyl-2H-inden-1-one, 2,3,3-trimethyl-2H-inden-1-one] | 76.2 | – | –
CCCCC1CCC(=O)O1 (centres unmarked) [γ-Octalactone, γ-octalactone] | – | – | Inhibitory rate for seeking for heat source (%) [2]: 87.4%
CC1=CC(C)C(CO)CC1 (centres unmarked) [2,4-Dimethylcyclohex-3-ene-1-methanol, 2,4-dimethylcyclohex-3-ene-1-methanol] | – | 67 | Total landing rate (%) [1]: 71.1%; Number of landings total [1]: 16; Number of landings 1 min [1]: 3; Number of landings 2 min [1]: 6; Number of landings 3 min [1]: 7
COC(C)(C)CCCC(C)CC=O (centres unmarked) [7-Methoxy-3,7-dimethyloctanal, 7-methoxy-3,7-dimethyloctanal] | 72.4 | – | –
O=CCOc1ccccc1 [Phenoxyacetaldehyde, phenoxyacetaldehyde] | 89 | – | –
CCCc1ccc(O)c(OC)c1 [2-Methoxy-4-propylphenol, 2-methoxy-4-propylphenol] | – | 95 | –
CC1=CC(C)C(CO)C(C)C1 (centres unmarked) [2,4,6-Trimethyl-3-cyclohexene-1-methanol, 2,4,6-trimethyl-3-cyclohexene-1-methanol] | – | 61 | –
CC(=O)OC1CCCCC1C(C)(C)C (centres unmarked) [o-tert-Butylcyclohexyl acetate, o-tert-butylcyclohexyl acetate] | – | 87 | –
CCCC1CC(=O)C=C(C)C1 (centres unmarked) [3-Methyl-5-propyl-2-cyclohexen-1-one, 3-methyl-5-propyl-2-cyclohexen-1-one] | 97.2 | – | –
CCC/C=C/COC(C)=O [trans-2-Hexenyl acetate, trans-2-hexenyl acetate] | – | 48 | –
C=CC(O)CCCCC (centres unmarked) [1-Octen-3-ol, 1-octen-3-ol] | – | 55 | –
CCCCCCCCO [1-Octanol, 1-octanol] | – | 97 | –
COC1CC2CC1C1CC(C=O)CC21 (centres unmarked) [octahydro-5-methoxy-4,7-methano-1H-indene-2-carboxaldehyde] | 89.2 | – | –

SMILES | pest or weed control at 0.1 % [2] [%] | pest or weed control at 1 % [3] [%] | other results
CCCCCCCCCCO [1-Decanol, 1-decanol] | – | 54 | –
CC1=CC(C)C(C=O)C(C)C1 (centres unmarked) [Isocyclocitral, isocyclocitral] | – | – | Inhibition of carbon dioxide response (%) [3]: 61%
Cc1ncsc1CCO [4-Methyl-5-thiazoleethanol, 4-methyl-5-thiazoleethanol] | 74.5 | – | –
C=CCCCCCCCCO [9-Decen-1-ol, 9-decen-1-ol] | – | 56 | –
CC=C1CC2CC1C1CCC(=O)OC21 (centres unmarked) [9-ethylidene-3-oxatricyclo(6.2.1.0^2,7)undecan-4-one] | 85.9 | – | –
CCC(C)(O)CCc1ccccc1 (centres unmarked) [3-Methyl-1-phenyl-3-pentanol, 3-methyl-1-phenyl-3-pentanol] | 69.3 | – | –
CCOC(=O)Cc1ccccc1 [Ethyl phenylacetate, ethyl phenylacetate] | – | 79 | –
CCCCCC1=C(C)CCC1=O [3-Methyl-2-pentylcyclopent-2-en-1-one, 3-methyl-2-pentylcyclopent-2-en-1-one] | – | 68 | –
Cc1ccc2ncccc2c1 [6-Methylquinoline, 6-methylquinoline] | 64.7 | – | –
CC/C=C\CCOC(C)=O [cis-3-Hexenyl acetate, cis-3-hexenyl acetate] | – | 50 | –
CCC(=O)OCc1ccccc1 [Benzyl propionate, benzyl propionate] | – | 97 | –
Cc1csc(C(C)C)n1 [2-Isopropyl-4-methylthiazol, 2-isopropyl-4-methylthiazol] | – | 71 | –
COC(OC)C(C)c1ccccc1 (centres unmarked) [2-Phenylpropionaldehyde dimethyl acetal, 2-phenylpropionaldehyde dimethyl acetal] | 66.8 | – | –
O=C1CCC2CCCCC2O1 (centres unmarked) [Octahydro-2H-1-benzopyran-2-one, octahydro-2H-1-benzopyran-2-one] | 93.3 | – | –
CC1=C(C=O)C(C)(C)CC=C1 [2,6,6-trimethylcyclohexa-1,3-diene-1-carbaldehyde] | 91.7 | – | –
